How the values were obtained:
SERT [1] = biological target: T1, SERT (Homo sapiens, UniProt P31645); assay: Uptake inhibition assay, [3H]5-HT uptake in HEK293 cells; type: cell-based; design: expressed in transfected cells
NET [2] = biological target: T2, NET (Homo sapiens, UniProt P23975); assay: Uptake inhibition assay, [3H]MPP+ uptake in HEK293 cells; type: cell-based; design: expressed in transfected cells
5-HT2B = biological target: T3, 5-HT2B (Homo sapiens, UniProt P41595); assay: Gq dissociation BRET assay in HEK293T cells; type: cell-based; conditions: for EC50: Gq dissociation BRET; for Emax: HEK-293T, read-out: Emax ± SEM, %5-HT response 5-HT2B
T3 construct: expressed in transfected cells; host or cells: HEK293T (ATCC; RRID:CVCL_0063), transient transfection
T3 sequence (P41595 whole entry): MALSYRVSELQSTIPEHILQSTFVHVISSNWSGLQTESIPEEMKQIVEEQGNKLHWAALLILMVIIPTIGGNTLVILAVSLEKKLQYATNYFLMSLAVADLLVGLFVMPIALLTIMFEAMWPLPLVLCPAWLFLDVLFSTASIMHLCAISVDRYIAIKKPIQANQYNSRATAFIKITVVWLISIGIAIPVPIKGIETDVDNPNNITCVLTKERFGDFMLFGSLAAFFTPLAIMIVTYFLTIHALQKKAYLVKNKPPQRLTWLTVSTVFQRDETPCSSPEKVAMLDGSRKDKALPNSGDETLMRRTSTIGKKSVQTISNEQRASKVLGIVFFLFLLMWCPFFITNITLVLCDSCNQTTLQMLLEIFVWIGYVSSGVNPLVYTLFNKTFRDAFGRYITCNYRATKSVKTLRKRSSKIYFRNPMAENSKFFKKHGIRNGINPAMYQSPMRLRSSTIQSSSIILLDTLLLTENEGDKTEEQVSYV

DAT [3] = biological target: T4, DAT (Homo sapiens, UniProt Q01959); assay: cell-based; conditions: read-out: Emax [95%-CI], DAT mediated [3H]MPP+ release
T4 sequence (Q01959 whole entry): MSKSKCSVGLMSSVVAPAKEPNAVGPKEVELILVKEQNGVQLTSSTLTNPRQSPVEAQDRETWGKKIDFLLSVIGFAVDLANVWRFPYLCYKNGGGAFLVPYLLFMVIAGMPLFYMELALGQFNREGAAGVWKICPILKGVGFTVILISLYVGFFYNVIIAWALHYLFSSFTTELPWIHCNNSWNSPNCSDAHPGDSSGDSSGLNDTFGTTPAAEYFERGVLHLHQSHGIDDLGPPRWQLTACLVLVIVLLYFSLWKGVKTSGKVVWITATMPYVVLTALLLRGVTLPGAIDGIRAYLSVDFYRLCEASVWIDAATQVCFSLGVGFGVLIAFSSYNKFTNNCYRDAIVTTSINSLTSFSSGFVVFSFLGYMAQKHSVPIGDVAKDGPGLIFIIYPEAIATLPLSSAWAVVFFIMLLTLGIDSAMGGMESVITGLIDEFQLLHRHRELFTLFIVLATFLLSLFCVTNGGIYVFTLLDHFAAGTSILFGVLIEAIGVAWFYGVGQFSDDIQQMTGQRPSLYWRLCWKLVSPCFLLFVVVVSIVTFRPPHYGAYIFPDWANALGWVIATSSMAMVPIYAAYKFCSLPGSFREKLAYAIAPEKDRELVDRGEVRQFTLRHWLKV

OCT2 = biological target: T5, OCT2 (Homo sapiens, UniProt O15244); assay: Uptake inhibition assay, [3H]MPP+ uptake in HEK293 cells
T5 sequence (O15244 1-555): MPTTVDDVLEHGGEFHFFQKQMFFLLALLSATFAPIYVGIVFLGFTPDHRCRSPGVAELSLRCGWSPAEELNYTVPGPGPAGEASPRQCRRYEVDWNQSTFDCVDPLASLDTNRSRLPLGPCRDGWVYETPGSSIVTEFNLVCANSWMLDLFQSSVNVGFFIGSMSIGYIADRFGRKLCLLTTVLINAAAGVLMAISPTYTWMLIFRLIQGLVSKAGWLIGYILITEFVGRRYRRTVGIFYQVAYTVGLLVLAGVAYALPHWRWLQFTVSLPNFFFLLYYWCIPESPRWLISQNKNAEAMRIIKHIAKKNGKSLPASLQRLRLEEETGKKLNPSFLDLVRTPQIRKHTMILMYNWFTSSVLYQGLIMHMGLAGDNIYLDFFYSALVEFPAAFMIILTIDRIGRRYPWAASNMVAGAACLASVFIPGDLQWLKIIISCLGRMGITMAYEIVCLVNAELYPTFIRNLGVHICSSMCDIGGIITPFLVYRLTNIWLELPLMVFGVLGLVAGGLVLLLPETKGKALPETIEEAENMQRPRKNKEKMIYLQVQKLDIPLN

[4] = Metabolic stability, substrate depletion in pooled human liver microsomes; conditions: human, pooled human liver microsomes
male C57BL/6J mice = assay: Head-twitch response (HTR); type: in vivo; conditions: IP, 30 min, doses based on the salt form
Description: (§1) Male Swiss CD-1 mice (Janvier, Le Genest, France), weighing 30–35 g and aged 6–8 weeks, were used for HLA, thigmotaxis, CPP, and core body temperature experiments. Animals were housed under temperature-controlled conditions (22 ± 1 °C) with a 12 h light/dark cycle and had free access to food and water (standard laboratory diet, Panlab SL, Barcelona, Spain). Doses for HLA, thigmotaxis, CPP, and core body temperature experiments were calculated based on the free base form of each compound. For HTR experiments, male C57BL/6J mice (6–8 weeks old) were obtained from Jackson Laboratories (Bar Harbor, ME, USA) and housed up to four per cage with a reversed light-cycle (lights on at 1900 h, off at 0700 h). Food and water were provided ad libitum, except during behavioral testing. Testing was conducted between 1000 and 1830 h. Doses for HTR experiments were calculated based on the respective salt forms of the compounds.
The HTR was assessed using a head-mounted magnet and a magnetometer detection coil. Mice were anesthetized, a small incision was made in the scalp, and a small neodymium magnet was attached to the dorsal surface of the cranium by using dental cement. Following a two week recovery period, HTR experiments were carried out in a well-lit room with at least 7 days between sessions to avoid carryover effects. Mice (N = 4–7/group) received intraperitoneal (IP) injections of vehicle (saline) or test drug (5 mL/kg injection volume), and then activity was recorded in a glass cylinder surrounded by a magnetometer coil for 30 min. Doses for HTR experiments were calculated based on the respective salt forms of the compounds. Coil voltage was low-pass filtered (1 kHz cutoff frequency), amplified, digitized (20 kHz sampling rate, 16-bit ADC resolution), and saved to disk using a Powerlab 8/35 data acquisition system with LabChart software (ver. 8.1 ADInstruments, Colorado Springs, CO, USA). To detect head twitches, events in the recordings were transformed to scalograms, deep features were extracted using the deep convolutional neural network ResNet-50, and then the images were classified using a support vector machine (SVM). Head twitch counts were analyzed using one-way ANOVA. Posthoc comparisons were made using Dunnett’s test.

SERT [5] = biological target: T1, SERT; assay: Release (superfusion) assay, SERT mediated [3H]5-HT efflux; conditions: for Emax: read-out: Emax [95%-CI], SERT mediated [3H]5-HT efflux
[6] = biological target: T6, human organic cation transporter 1 (OCT1) (Homo sapiens, UniProt O15245); assay: Uptake inhibition assay, [3H]MPP+ uptake in HEK293 cells
T6 sequence (O15245 1-554): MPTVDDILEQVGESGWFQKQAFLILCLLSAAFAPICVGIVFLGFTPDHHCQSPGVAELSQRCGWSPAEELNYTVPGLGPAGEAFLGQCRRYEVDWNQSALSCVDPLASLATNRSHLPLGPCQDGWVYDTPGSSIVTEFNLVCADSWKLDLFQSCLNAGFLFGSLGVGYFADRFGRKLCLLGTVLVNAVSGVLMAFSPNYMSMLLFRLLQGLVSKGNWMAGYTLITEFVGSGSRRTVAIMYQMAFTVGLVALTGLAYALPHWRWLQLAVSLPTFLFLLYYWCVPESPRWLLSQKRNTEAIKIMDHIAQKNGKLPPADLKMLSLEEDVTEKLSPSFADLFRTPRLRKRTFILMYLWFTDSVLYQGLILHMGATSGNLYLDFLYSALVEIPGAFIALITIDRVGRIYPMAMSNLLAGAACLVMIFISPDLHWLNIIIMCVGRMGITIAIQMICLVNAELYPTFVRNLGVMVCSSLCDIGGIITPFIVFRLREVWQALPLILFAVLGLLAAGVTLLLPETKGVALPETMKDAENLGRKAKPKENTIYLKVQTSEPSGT

DAT [7] = conditions: incubation at IC50 concentration for 60 min
5-HT2A = biological target: T7, 5-HT2A (Homo sapiens, UniProt P28223); assay: Gq dissociation BRET assay in HEK293T cells; type: cell-based; conditions: for EC50 / Emax ± SEM, %5-HT response 5-HT2A: Gq dissociation BRET; for Emax ± SEM, %5-HT response 5-HT2A: relative to 5-HT; for Emax: HEK-293T, read-out: Emax ± SEM, %5-HT response 5-HT2A, Gq dissociation BRET, relative to 5-HT
T7 construct: expressed in transfected cells; host or cells: HEK293T (ATCC; RRID:CVCL_0063), transient transfection
T7 sequence (P28223 whole entry): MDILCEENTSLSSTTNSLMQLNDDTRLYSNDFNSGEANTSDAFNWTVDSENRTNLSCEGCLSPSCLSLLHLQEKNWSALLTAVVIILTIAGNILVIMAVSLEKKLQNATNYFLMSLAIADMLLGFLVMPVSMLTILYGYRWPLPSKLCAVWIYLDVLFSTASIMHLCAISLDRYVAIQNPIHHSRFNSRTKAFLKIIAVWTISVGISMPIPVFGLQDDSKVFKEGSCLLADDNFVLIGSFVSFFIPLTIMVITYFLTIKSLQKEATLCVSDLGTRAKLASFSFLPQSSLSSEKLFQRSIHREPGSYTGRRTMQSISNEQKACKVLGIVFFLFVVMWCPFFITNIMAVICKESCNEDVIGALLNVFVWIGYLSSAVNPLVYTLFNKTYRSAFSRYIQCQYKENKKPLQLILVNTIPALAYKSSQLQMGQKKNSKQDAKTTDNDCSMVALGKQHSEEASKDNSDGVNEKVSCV

DAT [8] = biological target: T4, DAT
NET [9] = biological target: T2, NET; assay: Release (superfusion) assay, NET mediated [3H]MPP+ release; conditions: for Emax: read-out: Emax [95%-CI], NET mediated [3H]MPP+ release
[10] = tested on: NGF-differentiated PC12 cells; assay: Cytotoxicity, WST-8 assay; conditions: 24 hours
male Swiss CD-1 mice = assay: Conditioned place preference (CPP); type: in vivo; conditions: 10 mg/kg i.p., compared to saline
Description: as §1
For this experiment, an apparatus with two distinct compartments, differing in tactile and visual cues, connected by a central corridor, was used. The conditioned place preference (CPP) procedure consisted of three phases: preconditioning, conditioning, and postconditioning. In the preconditioning phase (day 0), mice were placed in the middle of the corridor and allowed to freely explore both compartments for 15 min. The time spent in each compartment was recorded and monitored using specific tracking software (Smart 3.0 Panlab, Barcelona, Spain). In the conditioning phase (day 1–day 8), access to the corridor was closed. […] On alternate days, , mice received a saline i.p. injection and were placed in the other compartment for 30 min. Mice in the control group received a saline injection in every session. The compartments and sessions in which the drug was administered were randomized. In the postconditioning phase (test day), the same conditions as the preconditioning phase were reinstated. A preference score was determined by calculating the difference in time spent in the drug-paired compartment between the post- and preconditioning phases.

[11] = pHLM; literature data ref 9 (Alberto-Silva et al., 2024); cited from earlier work

T2 sequence (P23975 whole entry): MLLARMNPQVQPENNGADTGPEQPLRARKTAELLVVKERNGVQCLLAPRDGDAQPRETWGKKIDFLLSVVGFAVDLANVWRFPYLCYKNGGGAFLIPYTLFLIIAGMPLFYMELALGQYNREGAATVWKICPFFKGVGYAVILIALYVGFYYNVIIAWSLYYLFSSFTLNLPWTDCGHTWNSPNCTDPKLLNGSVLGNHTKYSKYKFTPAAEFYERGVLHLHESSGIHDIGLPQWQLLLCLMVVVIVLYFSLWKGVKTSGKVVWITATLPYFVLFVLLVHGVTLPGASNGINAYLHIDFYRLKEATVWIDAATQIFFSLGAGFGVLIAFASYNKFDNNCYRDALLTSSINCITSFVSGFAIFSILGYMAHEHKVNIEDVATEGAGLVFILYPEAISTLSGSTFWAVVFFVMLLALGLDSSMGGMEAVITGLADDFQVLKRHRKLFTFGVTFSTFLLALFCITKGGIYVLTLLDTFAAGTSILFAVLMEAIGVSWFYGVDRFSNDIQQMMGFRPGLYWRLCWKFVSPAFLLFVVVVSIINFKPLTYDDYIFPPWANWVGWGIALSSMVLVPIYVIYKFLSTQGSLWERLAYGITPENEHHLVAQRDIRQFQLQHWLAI
T1 sequence (P31645 whole entry): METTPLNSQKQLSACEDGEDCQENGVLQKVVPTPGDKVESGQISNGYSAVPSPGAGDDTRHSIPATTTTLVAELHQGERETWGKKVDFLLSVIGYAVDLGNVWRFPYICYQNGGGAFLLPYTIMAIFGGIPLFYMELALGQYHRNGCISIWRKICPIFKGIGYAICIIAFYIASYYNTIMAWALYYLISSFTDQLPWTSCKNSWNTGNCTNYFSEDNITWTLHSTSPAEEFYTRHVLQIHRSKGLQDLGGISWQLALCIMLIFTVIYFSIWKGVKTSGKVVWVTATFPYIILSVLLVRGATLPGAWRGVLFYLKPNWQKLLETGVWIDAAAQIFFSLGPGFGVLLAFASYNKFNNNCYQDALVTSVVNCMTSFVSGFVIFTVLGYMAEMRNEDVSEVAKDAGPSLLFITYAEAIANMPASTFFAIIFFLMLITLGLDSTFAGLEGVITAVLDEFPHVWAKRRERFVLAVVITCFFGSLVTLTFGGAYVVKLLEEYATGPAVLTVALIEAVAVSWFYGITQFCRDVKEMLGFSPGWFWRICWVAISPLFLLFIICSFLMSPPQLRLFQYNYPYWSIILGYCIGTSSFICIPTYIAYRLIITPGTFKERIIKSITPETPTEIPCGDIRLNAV

SMILES | IC50 (SERT [1]) [µM] | IC50 (NET [2]) [µM] | EC50 (5-HT2B; EC50 5-HT2B) [µM] | Emax (5-HT2B) [%] | Emax (DAT [3]) [%] | IC50 (OCT2) [µM] | HTR counts (male C57BL/6J mice) | EC50 (SERT [5]) [µM] | type of releaser at SERT (SERT [5]) | Emax (SERT [5]) [%] | IC50 [6] [µM] | EC50 (5-HT2A; EC50 5-HT2A) [µM] | Emax ± SEM, %5-HT response 5-HT2A (5-HT2A) [%] | Emax (5-HT2A) [%] | type of releaser at DAT (DAT [8]) | EC50 (NET [9]) [µM] | type of releaser at NET (NET [9]) | Emax (NET [9]) [%] | also measured
CC(N)Cc1ccc2c(c1)OCO2 (stereo not shown) [MDA, 3,4-Methylenedioxyamphetamine, reference compound] | 22.9 ± 2.27 | 3.33 ± 0.47 | 0.139 | 104 ± 4.9 | 67.2 | 5.13 ± 1.18 | dose-related increase in HTR counts peaking at 3 mg/kg | 4.35 | partial releasers | 45.5 | 6.93 ± 2.63 | 0.905 | 87.8 ± 2.4 | > 70 | partial releasers | 0.35 | full releasers | 126 | half-life at 0.5 μM [4]: > 2.5 h; transporter expression on plasma membrane level (DAT [7]): expression levels slightly increased
CNC(C)Cc1ccc2c(c1)OCO2 (stereo not shown) [MDMA, 3,4-Methylenedioxymethamphetamine, reference compound] | 6.47 ± 0.93 | 3.17 ± 0.72 | 0.531 | 59.9 ± 5.1 | 43.1 | 5.3 ± 0.25 | Neither MDMA nor SDMA induced an appreciable increase in HTR counts | 1.95 | partial releasers | 39.3 | 5.09 ± 3.14 | 3.13 | 66.0 ± 2.3 | < 70 | partial releasers | 0.73 | full releasers | 111 | concentration at which cytotoxicity starts [10]: 2000 µM; EC50 (5-HT2B; pEC50 ± SEM 5-HT2B): 0.525 µM; rewarding effects (CPP preference score) (male Swiss CD-1 mice): induce rewarding effects; in vitro half-life (t1/2) [11]: > 2.5 h; EC50 (5-HT2A; pEC50 ± SEM 5-HT2A): 3.09 µM
